US9540691B2, “Assays and methods for selecting a treatment regimen for a subject with depression” (THE GENERAL HOSPITAL CORPORATION, priority 2011, dated 2017)
Where two headings read alike, the source gives them in different places.

What was measured:
[1] = test system: patients with major depressive disorder (MDD) resistant to treatment with SSRIs
Text: Using the sequential parallel design […] For those randomly assigned to the placebo/placebo sequence, both responders and non-responders to placebo during the first phase (n=25) remain on placebo during the second phase. […] Data from the previous double-blind, placebo-controlled study (Trial 1) can be pooled into the instant study (Trial 2) to provide a more accurate estimate of the placebo effect size, with a weighted average from the two Phases 1 (one from Trial 1 and one from Trial 2) and two Phases 2 (one from Trial 1 and one from Trial 2).
The primary efficacy measure can include the change in 17-item Hamilton Rating Scale for Depression (HAM-D-17) score. […] A remission is, for example, defined as a HAM-D-17 score less than 8 at endpoint. Secondary measures of efficacy can include change in CGI-severity, with “clinical response defined” as CGI-S of 1 or 2 at endpoint. Patients with a CGI-I score greater than 5 at any post baseline visit or a 50 percent or greater worsening of depressive symptoms from baseline to that visit are discontinued from the study. Subjects are also discontinued from the study with any emergence of suicidality, homicidality, mania, or psychosis. Additional exemplary instruments that can be administered according to the study schedule include the following: • (1) Structured Clinical Interview for DSM-IV: The SCID-I/P, administered by the clinician, proceeds by modules to diagnose the different Axis I disorders. Questions are asked exactly as written, and each is based on the individual criteria from DSM-IV. Answers are generally rated on a scale of 1-3 (1=doubtful, 2=probable, 3=definite), and, based on the number of positive answers, a diagnosis is determined by a clinician. While the entire SCID-UP is administered at screen, the mood module is administered at each follow up visit. • (2) The MGH Antidepressant Treatment History Questionnaire (MGH-ATR): The MGH-ATR provides specific criteria for the adequate dose and adequate length of a trial for it to be considered a failure, thus allowing clinicians to systematically collect data aimed at assessing the degree of treatment-resistance of the current major depressive episode. • (3) The 28-item Hamilton Depression Scale (HAM-D-28): This version allows scoring of the HAM-D-17, 21-, 25-, and 28-item scales. This instrument is completed by the clinician by using a structured interview and defined anchor points, and aims to quantify the degree of depression over the past 7 days. The HAM-D is the most widely studied instrument for depression, and its reliability and validity are high. • (4) Clinical Global Impressions-Severity and Improvement (CGI-S, CGI-I): These two instruments are scored 1-7 by the clinician based on assessment of the patient's clinical status. They measure, based on history and scores on other instruments: a) Depressive severity (CGI-S) and b) Clinical Improvement (CGI-I). […] Safety Measurements
Data are entered and error-checked at each clinical site involved in the study. Study staff and subjects may have the option to enter self-evaluations into the system directly using DatStat Illume™. The process of data entry is supervised by the DCRP staff. Once the data set is entered and checked, analyses are conducted. Both a completer analysis of all patients finishing the trial and an intent-to-treat analysis examining all patients enrolled into the trial are used to define the severity of depression at endpoint. Examination of both study completers and all patients randomized can provide the broadest assessment of the effects of treatment in trials of such kind. The data from Trial 2 can be pooled with those from Trial 1 with the sequential parallel comparison design, to provide an estimate of the placebo response based on a larger sample size. […] Let p1, q1 be the response rates to the first administration of drug and placebo respectively and let p2, q2 be the responses rates to the second treatment.

[2] = test system: patients with major depressive disorder (MDD) resistant to treatment with SSRIs; remark: listed apart in the source
Method: Documentation of the presence of any side effect or adverse event is completed at every visit using the SAFTEE-SI. Subjects can contact a clinician at any time between visits concerning adverse events or worsening of symptoms. Suicidal ideation is assessed at each visit. Subjects who are felt by the study clinician to be at high risk for suicide are discontinued from the study and referred for hospitalization and further treatment if clinically indicated (See Tables 4 & 5 below).
One-way analysis of variance can be used to assess differences in total number of SAFTEE-SI AEs between baseline and endpoint.

[3] = 7.5 mg/day adjunct to SSRI, Phase 1
[4] = 7.5 mg/day adjunct to SSRI, Phase 2 (Phase 1 completers/non-responders only)
[5] = 7.5 mg/day adjunct to SSRI, pooled Phases 1 and 2 (SPCD)
[6] = L-methylfolate 15 mg (n = 42) with SSRI
[7] = L-methylfolate 15 mg vs placebo

`CN1c2c(nc(N)[nH]c2=O)NC[C@@H]1CNc1ccc(C(=O)N[C@@H](CCC(=O)O)C(=O)O)cc1` [6(S)-5-MTHF, 6(S)-5-methyltetrahydrofolate] was tested, and the “efficacy as an adjunct to the SSRIs (in words)” value ([1]; 7.5 mg/day) was “not effective”, the “CGI-S Mean score reduction (SD)” value [1, 3] was −0.5 (0.9) and the “HDRS-17 % Remission” value [1, 3] was 11.1% (4). For the same compound, the “HDRS-17 % Response” value [1, 3] was 19.8% (7), the “HDRS-17 Mean score reduction (SD)” value [1, 3] was −4.3 (5.0) and the “QIDS-SR % Remission” value [1, 3] was 0.0% (0). The “QIDS-SR % Responsive” value [1, 3] was 25.0% (9), the “QIDS-SR Mean score reduction (SD)” value [1, 3] was −4.6 (5.1) and the “CGI-S Mean score reduction (SD)” value [1, 4] was −0.5 (0.7). For the same compound, the “HDRS-17 % Remission” value [1, 4] was 14.2% (5), the “HDRS-17 % Response” value [1, 4] was 17.1% (6) and the “HDRS-17 Mean score reduction (SD)” value [1, 4] was −3.1 (4.2). The “QIDS-SR % Remission” value [1, 4] was 8.5% (3), the “QIDS-SR % Responsive” value [1, 4] was 8.5% (3) and the “QIDS-SR Mean score reduction (SD)” value [1, 4] was 4.8 (4.1). For the same compound, the “CGI-S Mean score reduction” value [1, 5] was −0.53, the “HDRS-17 Mean score reduction” value [1, 5] was −3.70 and the “QIDS-SR % Remission” value [1, 5] was 4.3%. For the same compound, the “QIDS-SR % Responsive” value [1, 5] was 19.8%, the “QIDS-SR Mean score reduction” value [1, 5] was −0.25 and the “increase in response and remission rate compared to placebo with SSRIs” value ([1]; 15 mg/day in second phase, drug/drug sequence) was “at least 2 fold”. For the same compound, the “response and remission rate” value ([1]; dose increased from 7.5 to 15 mg/day in second phase, drug/drug sequence, placebo with SSRIs 9%, p=0.1) was 24%, the “Cardiovascular side effects, Frequency (%)” value [2, 6] was “(0%)” and the “Cardiovascular side effects, Frequency (number of subjects)” value [2, 6] was 0. For the same compound, the “Gastrointestinal side effects, Frequency (number of subjects)” value [2, 6] was 7, the “Infectious side effects, Frequency (number of subjects)” value [2, 6] was 5 and the “Miscellaneous side effects, Frequency (%)” value [2, 6] was “(2.4%)”. The “Miscellaneous side effects, Frequency (number of subjects)” value [2, 6] was 1, the “Psychological side effects, Frequency (%)” value [2, 6] was “(9.5%)” and the “Psychological side effects, Frequency (number of subjects)” value [2, 6] was 4. For the same compound, the “Sexual side effects, Frequency (%)” value [2, 6] was “(2.4%)”, the “Sexual side effects, Frequency (number of subjects)” value [2, 6] was 1 and the “Sleep side effects, Frequency (%)” value [2, 6] was “(2.4%)”. For the same compound, the “Sleep side effects, Frequency (number of subjects)” value [2, 6] was 1, the “Somatic side effects, Frequency (number of subjects)” value [2, 6] was 6 and the “Cardiovascular side effects, NNH” value [2, 7] was “=placebo”. For the same compound, the “Gastrointestinal side effects, NNH” value [2, 7] was 53, the “Infectious side effects, NNH” value [2, 7] was “<placebo” and the “Miscellaneous side effects, NNH” value [2, 7] was “<placebo”. For the same compound, the “Psychological side effects, NNH” value [2, 7] was “<placebo”, the “Sexual side effects, NNH” value [2, 7] was 98 and the “Sleep side effects, NNH” value [2, 7] was “<placebo”. The “Somatic side effects, NNH” value [2, 7] was “<placebo”, the “number of adverse events by SAFTEE-SI vs placebo (in words)” value ([2]; SSRI + 15 mg/day) was “no significant differences” and the “discontinuation from the study due to overall adverse side-effects or exclusion events (in words)” value ([2]; Trial 2, FIG. 3E) was “no difference”.
